Reference: PMC6892925, “Development of Novel Silyl Cyanocinnamic Acid Derivatives as Metabolic Plasticity Inhibitors for Cancer Treatment” (Scientific Reports, 2019)

Key:
[1] = test system: WiDr cells; assay: Western blot analysis of cell damage and death markers; assay type: cell-based, human; details: WiDr
Protocol: (§1) Owing to the enhanced antiproliferative effects induced by test compound 2a when compared to CHC, western blot analysis of cell damage and death markers was performed. The master transcription factor p53 regulates the expression of numerous genes involved in cancer progression and is responsible for balancing proliferation and apoptosis. In this regard, we evaluated the effects of compound treatment on p53 expression. Literature reports indicate that MDA-MB-231 and WiDr cells express distinct homozygous mutant forms of p53 that promote an aggressive malignant phenotype with resistance to apoptosis[36],[37]. […] Further, PARP1 is involved in the DNA repair pathway through sensing DNA-strand breaks and recruiting repair enzymes. Importantly, PARP1 is a target of caspase cleavage under apoptotic conditions, and the appearance of the PARP1 cleavage product is a widely used indicator of cellular apoptosis. […] Additionally, DNA damage may be a downstream effect of apoptotic nuclease activity or an increase in reactive oxygen species (ROS) from damaged mitochondria; as illustrated in microscopy and seahorse experiments. Histone 2AX phosphorylation (γH2AX) resulting from DNA single- and double-strand breaks is a widely employed marker for DNA damage. In this regard, we investigated the effect of 2a on DNA damage marker γH2AX (phosphorylated Ser139, histone H2AX) with a phospho-specific antibody. […] Due to the potential of ROS leading to DNA damage and H2AX phosphorylation, we investigated the ability of antioxidant N-acetyl cysteine (NAC) to inhibit DNA damage of compound 2a as evidenced by H2AX phosphorylation in the highly oxidative cell line WiDr (Fig. 4A).
(§2) 50,000 WiDr or MDA-MB-231 cells were seeded in 100 mm dishes and were incubated for 48 hours. Cells were then treated with test compounds for 24 hours, washed twice with 1X PBS, solubilized in 200 μL SDS boiling buffer (5% w/v SDS, 10% v/v glycerol, and 60 mM Tris pH 6.8), and sonicated. The resulting cell lysate was then assayed for protein using the Pierce BCA protocol. A volume of test sample containing 10 μg protein was loaded on SDS PAGE gel for electrophoresis according to manufacturer’s instructions. Proteins were transferred from the gel to nitrocellulose membrane according to the manufacturer’s instructions. Membranes were blocked for 1 hr at 35 °C using 10% (w/v) non-fat milk in PBST and were exposed to primary antibody. PARP1 (rabbit polyclonal IgG, Origene, TA321555), p53 (rabbit polyclonal IgG, Santa Cruz, sc50329), and γ-H2AX (Upstate 05-636, 1:2500) were detected and visualized using HRP chemiluminescence. For relative quantitation, β-actin (mouse monoclonal IgG C4, Millipore, MAB1501, 1:10,000) and GAPDH (mouse monoclonal IgG, Santa Cruz, sc47724, 1:100) were detected and measured as a control protein.

[2] = test system: MDA-MB-231 cells; assay: as above; assay type: cell-based, human
Protocol: as §1, §2

In the case of CC(C)(C)[Si](Oc1ccc(/C=C(\C#N)C(=O)O)cc1)(c1ccccc1)c1ccccc1 [2a], the PARP1 cleavage ([1]; 100 μM, 24 hours) is reported as “induced PARP1 cleavage”, the “expression of γH2AX (DNA damage marker)” value ([1]; 100 μM, 24 hours) is reported as “substantial increases” and the p53 expression ([1]; 24 hours treatment) is reported as “not in WiDr”. The PARP1 cleavage ([2]; 100 μM, 24 hours) was “induced PARP1 cleavage”, the “expression of γH2AX (DNA damage marker)” value ([2]; 100 μM, 24 hours) was “substantial increases” and the p53 expression ([2]; 24 hours treatment) was “increase in p53 expression”.
